For one experiment, the target named is GCN2 kinase (Homo sapiens, UniProt Q9P2K8). Put plainly: GCN2 enzyme inhibition assay (Transcreener ADP2 fluorescence polarization). It is filed as biochemical. Particulars: 280 μM ATP. The gist of the method:
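Run at 25 °C in 25 mM Tris-HCl pH 7.5, 50 mM NaCl, 10 mM MgCl2, 1 mM DTT with 4 nM GCN2, 280 μM ATP and 200 μM (RS)7 peptide; compound (0–8 μM final) preincubated 10 min, reaction 1 h. ADP read by antibody/tracer FP; IC50 and Ki(app) from tight-binding fit.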

Experiment [1] addresses intracellular GCN2 (phosphorylation of the GCN2 substrate eIF2α) (Homo sapiens, UniProt Q9P2K8). Put plainly: GCN2 cellular inhibition assay (AlphaScreen SureFire P-eIF2α Ser51, borrelidin-treated U2OS cells). It is filed as cell-based. Particulars: biomarker assay, phosphorylated eIF2α Ser51 in borrelidin-treated U2OS cells. The gist of the method: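 First, U2OS cells are plated and left overnight at 37 °C. Next, compounds (from 40 μM final, 4-fold steps) and 10 μM borrelidin are added for 1 h, cells lysed, and phospho-Ser51 eIF2α detected by AlphaScreen bead sandwich. Inhibition is computed versus borrelidin-only wells.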

Setting [2] is: compounds of Formula II, 4 nM GCN2 kinase.
Where [3] appears, read: Enzyme activity for compounds of Formula IV, Ki(app), 25° C.

Chain of intracellular GCN2 (phosphorylation of the GCN2 substrate eIF2α) (Q9P2K8 whole entry): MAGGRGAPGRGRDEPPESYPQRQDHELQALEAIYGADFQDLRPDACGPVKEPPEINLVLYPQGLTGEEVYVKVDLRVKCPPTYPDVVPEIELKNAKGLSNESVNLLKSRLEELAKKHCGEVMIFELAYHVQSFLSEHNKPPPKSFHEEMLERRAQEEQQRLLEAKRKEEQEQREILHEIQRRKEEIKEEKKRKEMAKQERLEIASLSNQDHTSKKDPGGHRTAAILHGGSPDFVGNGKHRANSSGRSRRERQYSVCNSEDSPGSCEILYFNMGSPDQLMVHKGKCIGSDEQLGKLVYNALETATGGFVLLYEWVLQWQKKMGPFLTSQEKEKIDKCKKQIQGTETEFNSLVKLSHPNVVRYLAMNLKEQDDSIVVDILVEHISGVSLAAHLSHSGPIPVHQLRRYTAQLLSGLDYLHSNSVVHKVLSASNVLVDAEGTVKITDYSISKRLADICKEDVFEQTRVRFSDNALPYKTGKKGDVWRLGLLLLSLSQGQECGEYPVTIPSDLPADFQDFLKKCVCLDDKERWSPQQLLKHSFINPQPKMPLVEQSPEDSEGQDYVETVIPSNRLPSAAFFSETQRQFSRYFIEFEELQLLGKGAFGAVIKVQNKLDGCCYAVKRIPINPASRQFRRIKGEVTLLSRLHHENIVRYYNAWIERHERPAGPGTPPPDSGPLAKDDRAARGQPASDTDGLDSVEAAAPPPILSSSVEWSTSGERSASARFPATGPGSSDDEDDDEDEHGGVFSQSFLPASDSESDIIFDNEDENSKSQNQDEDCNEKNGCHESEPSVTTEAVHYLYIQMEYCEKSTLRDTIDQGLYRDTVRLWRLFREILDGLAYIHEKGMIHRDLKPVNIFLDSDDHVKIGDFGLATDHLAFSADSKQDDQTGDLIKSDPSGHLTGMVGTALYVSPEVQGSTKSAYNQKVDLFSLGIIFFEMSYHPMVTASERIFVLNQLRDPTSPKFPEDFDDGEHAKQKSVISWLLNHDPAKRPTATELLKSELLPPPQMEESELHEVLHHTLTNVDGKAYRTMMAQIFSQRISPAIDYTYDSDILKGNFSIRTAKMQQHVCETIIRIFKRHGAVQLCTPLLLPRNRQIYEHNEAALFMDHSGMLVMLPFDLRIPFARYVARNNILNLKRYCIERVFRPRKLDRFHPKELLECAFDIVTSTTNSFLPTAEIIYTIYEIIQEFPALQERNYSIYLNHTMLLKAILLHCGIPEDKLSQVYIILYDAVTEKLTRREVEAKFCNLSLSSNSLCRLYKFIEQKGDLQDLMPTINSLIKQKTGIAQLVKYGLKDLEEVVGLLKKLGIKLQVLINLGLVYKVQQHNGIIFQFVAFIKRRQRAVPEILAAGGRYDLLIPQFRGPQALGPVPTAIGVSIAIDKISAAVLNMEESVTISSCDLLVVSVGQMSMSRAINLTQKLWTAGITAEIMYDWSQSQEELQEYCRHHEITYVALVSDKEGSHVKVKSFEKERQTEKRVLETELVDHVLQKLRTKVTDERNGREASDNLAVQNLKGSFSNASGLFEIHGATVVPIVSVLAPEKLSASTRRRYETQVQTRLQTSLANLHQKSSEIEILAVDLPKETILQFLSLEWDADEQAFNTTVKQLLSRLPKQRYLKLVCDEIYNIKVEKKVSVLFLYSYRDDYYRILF
Chain of GCN2 kinase (Q9P2K8 whole entry): as above

`NC(=O)c1cc(C2CCCN(c3cc(-c4cnc5ccc(C(F)F)nn45)ncn3)C2)n[nH]1` (stereo not shown) [II-205, 3-(1-(6-(6-(Difluoromethyl)imidazo[12-b]pyridazin-3-yl)pyrimidin-4-yl)piperidin-3-yl)-1H-pyrazole-5-carboxamide] registered a Ki on GCN2 kinase (setting [2]) of 10 to 1000 nM. In experiment [1] (compounds of Formula II), this compound came in with an IC50 of 500 to 5000 nM.
For `CC1C(CNS(C)(=O)=O)OCCN1c1cc(-c2cnc3ccc(C(F)F)nn23)ncn1` (stereo not shown) [II-345, N-((4-(6-(6-(Difluoromethyl)imidazo[1,2-b]pyridazin-3-yl)pyrimidin-4-yl)-3-methylmorpholin-2-yl)methyl)methanesulfonamide] the same measures were under 10 nM and under 500 nM.
On to `CC1CN(c2ccnc(-c3cnc4cnc(C(F)(F)F)cn34)n2)CC(c2cn[nH]c2)N1` (single isomer, unassigned) [IV-460, 3-(4-(3-Methyl-5-(1H-pyrazol-4-yl)piperazin-1-yl)pyrimidin-2-yl)-6-(trifluoromethyl)imidazo[1,2-a]pyrazine], for which the Ki on GCN2 kinase (setting [3]) fell in the range of 100 to 1000 nM. In experiment [1] (compounds of Formula IV), this compound gave a half-inhibitory concentration (IC50) of 500 to 5000 nM.
On GCN2 kinase (setting [2]), `CC1C(CNS(C)(=O)=O)N(CC2CC2)CCN1c1cc(-c2cnc3ccc(C(F)F)nn23)ncn1` (stereo not shown) [II-495, N-((1-(Cyclopropylmethyl)-4-(6-(6-(difluoromethyl)imidazo[1,2-b]pyridazin-3-yl)pyrimidin-4-yl)-3-methylpiperazin-2-yl)methyl)methanesulfonamide] yielded a Ki of under 10 nM. In experiment [1] (compounds of Formula II), this compound yielded an IC50 of under 500 nM.
Take `C[C@@H]1C[C@H](c2cn[nH]c2)CN(c2ccnc(-c3cnc4cnc(C(F)(F)F)cn34)n2)C1` [IV-770, 3-(4-((3R,5R)-3-methyl-5-(1H-pyrazol-4-yl)piperidin-1-yl)pyrimidin-2-yl)-6-(trifluoromethyl)imidazo[1,2-a]pyrazine]: the IC50 at GCN2 kinase (compounds of Formula IV, 4 nM GCN2 kinase) was 10 to 1000 nM; in experiment [1] (compounds of Formula IV), under 500 nM.
Regarding `CC(C)(O)C1CC(c2cn[nH]c2)CN(c2ccnc(-c3cnc4cnc(C(F)(F)F)cn34)n2)C1` (single isomer, unassigned) [IV-682, 2-(5-(1H-Pyrazol-4-yl)-1-(2-(6-(trifluoromethyl)imidazo[1,2-a]pyrazin-3-yl)pyrimidin-4-yl)piperidin-3-yl)propan-2-ol], at GCN2 kinase (setting [3]), the Ki is 10 to 100 nM. For the same compound, the IC50 in experiment [1] (compounds of Formula IV) fell in the range of 500 to 5000 nM.
In the case of `O=C1CCC2(CCN(c3cc(-c4cnc5ccc(C(F)F)nn45)ncn3)CC2)CN1` [II-211, 9-(6-(6-(Difluoromethyl)imidazo[1,2-b]pyridazin-3-yl)pyrimidin-4-yl)-2,9-diazaspiro[5.5]undecan-3-one], on GCN2 kinase (setting [2]), the Ki lay within 10 to 1000 nM. In experiment [1] (compounds of Formula II), this compound came in with an IC50 of 500 to 5000 nM.
Turning to `CC1C(CNS(C)(=O)=O)CCCN1c1cc(-c2cnc3ccc(C(F)F)nn23)ncn1` (single isomer, unassigned) [II-265, N-((1-(6-(6-(Difluoromethyl)imidazo[1,2-b]pyridazin-3-yl)pyrimidin-4-yl)-2-methylpiperidin-3-yl)methyl)methanesulfonamide], the Ki on GCN2 kinase (setting [2]) was in the range of 10 to 1000 nM. In experiment [1] (compounds of Formula II), this compound displayed an IC50 of over 5000 nM.
At GCN2 kinase (setting [3]), `CC1C(c2cn[nH]c2)CC(P(C)(C)=O)CN1c1ccnc(-c2cnc3cnc(C(F)(F)F)cn23)n1` (stereo not shown) [IV-693, Dimethyl(6-methyl-5-(1H-pyrazol-4-yl)-1-(2-(6-(trifluoromethyl)imidazo[1,2-a]pyrazin-3-yl)pyrimidin-4-yl)piperidin-3-yl)phosphine oxide] came in with a Ki of 10 to 100 nM. Also, the IC50 in experiment [1] (compounds of Formula IV) is over 5000 nM.
As for `O=C1COC2(CN1)COCCN(c1cc(-c3cnc4ccc(C(F)F)nn34)ncn1)C2` (stereo not shown) [II-309, 11-(6-(6-(Difluoromethyl)imidazo[1,2-b]pyridazin-3-yl)pyrimidin-4-yl)-1,8-dioxa-4,11-diazaspiro[5.6]dodecan-3-one], the Ki at GCN2 kinase (setting [2]) was over 1000 nM. This compound also returned an IC50 in experiment [1] (compounds of Formula II) of over 5000 nM.
In turn, `OCC1CCCN(c2ccnc(-c3cnc4cnc(C(F)F)cn34)n2)C1` (stereo not shown) [IV-121, (1-(2-(6-(Difluoromethyl)imidazo[1,2-a]pyrazin-3-yl)pyrimidin-4-yl)piperidin-3-yl)methanol] had a Ki on GCN2 kinase (setting [3]) of 100 to 1000 nM. In experiment [1] (compounds of Formula IV), the IC50 is over 5000 nM.
On GCN2 kinase (setting [2]), `CS(=O)(=O)NCC1CN(c2cc(-c3cnc4ccc(C(F)F)nn34)ncn2)CC2(CC2)O1` (stereo not shown) [II-383, N-((7-(6-(6-(Difluoromethyl)imidazo[1,2-b]pyridazin-3-yl)pyrimidin-4-yl)-4-oxa-7-azaspiro[2.5]octan-5-yl)methyl)methanesulfonamide] registered a Ki of 10 to 1000 nM. This compound also came in with an IC50 in experiment [1] (compounds of Formula II) of 500 to 5000 nM.
In turn, `CS(C)(=O)=NC1CCCN(c2cc(-c3cnc4ccc(C(F)F)nn34)ncn2)C1C(F)F` (stereo not shown) [II-700, [2-(Difluoromethyl)-1-[6-[6-(difluoromethyl)imidazo[1,2-b]pyridazin-3-yl]pyrimidin-4-yl]-3-piperidyl]imino-dimethyl-λ^6-sulfanone] gave a Ki on GCN2 kinase (setting [2]) of under 10 nM. This compound displayed an IC50 in experiment [1] (compounds of Formula II) of under 500 nM.
Regarding `OC[C@@H]1CN(c2cc(-c3cnc4ccc(C(F)F)nn34)ccn2)CCN1` [II-169, (S)-(4-(4-(6-(Difluoromethyl)imidazo[1,2-b]pyridazin-3-yl)pyridin-2-yl)piperazin-2-yl)methanol], on GCN2 kinase (setting [2]), the Ki lay within 10 to 1000 nM. The compound also showed an IC50 in experiment [1] (compounds of Formula II) of over 5000 nM.
For the compound `CC1CN(c2ccnc(-c3cnc4cnc(C(F)(F)F)cn34)n2)CC(c2c[nH]cn2)O1` (single isomer, unassigned) [IV-406, 2-(1H-Imidazol-4-yl)-6-methyl-4-(2-(6-(trifluoromethyl)imidazo[1,2-a]pyrazin-3-yl)pyrimidin-4-yl)morpholine], the Ki at GCN2 kinase (setting [3]) is 10 to 100 nM. The compound also showed a half-maximal inhibitory concentration (IC50) in experiment [1] (compounds of Formula IV) of over 5000 nM.
`CS(=O)(=O)NCC1CCCN(c2cc(-c3cnc4ccc(C(F)F)nn34)cc(C(F)(F)F)n2)C1` (stereo not shown) [II-63, N-((1-(4-(6-(Difluoromethyl)imidazo[1,2-b]pyridazin-3-yl)-6-(trifluoromethyl)pyridin-2-yl)piperidin-3-yl)methyl)methanesulfonamide]: the Ki on GCN2 kinase (setting [2]) was under 10 nM. This compound returned an IC50 in experiment [1] (compounds of Formula II) of over 5000 nM.
The compound `CC1CN(c2cc(-c3cnc4ccc(C(N)=O)nn34)ncn2)C(C)C(c2cn[nH]c2)N1` (stereo not shown) [II-728, 3-[6-[2,5-Dimethyl-3-(1H-pyrazol-4-yl)piperazin-1-yl]pyrimidin-4-yl]imidazo[1,2-b]pyridazine-6-carboxamide] returned a Ki at GCN2 kinase (setting [2]) of 10 to 1000 nM. Also, the IC50 in experiment [1] (compounds of Formula II) is over 5000 nM.
At GCN2 kinase (setting [3]), `CC1C(C(N)=O)CCCN1c1ccnc(-c2cnc3cnc(C(F)F)cn23)n1` (stereo not shown) [IV-109, 1-(2-(6-(Difluoromethyl)imidazo[1,2-a]pyrazin-3-yl)pyrimidin-4-yl)-2-methylpiperidine-3-carboxamide] showed a Ki of 10 to 100 nM. Besides, in experiment [1] (compounds of Formula IV), the concentration for half-maximal inhibition (IC50) was 500 to 5000 nM.
The compound `CC1C(CNS(C)(=O)=O)N(C)C(C)CN1c1cc(-c2cnc3ccc(C(F)F)nn23)ncn1` (stereo not shown) [II-448, N-((4-(6-(6-(Difluoromethyl)imidazo[1,2-b]pyridazin-3-yl)pyrimidin-4-yl)-1,3,6-trimethylpiperazin-2-yl)methyl)methanesulfonamide] had a Ki on GCN2 kinase (setting [2]) of under 10 nM. The compound further displayed an IC50 in experiment [1] (compounds of Formula II) of under 500 nM.
Compound `CC1CN(c2cc(N3CCC3)nc(-c3cnc4cnc(C(F)(F)F)cn34)n2)C(C)C(c2cn[nH]c2)N1` (stereo not shown) [IV-637, 3-(4-(Azetidin-1-yl)-6-(2,5-dimethyl-3-(1H-pyrazol-4-yl)piperazin-1-yl)pyrimidin-2-yl)-6-(trifluoromethyl)imidazo[1,2-a]pyrazine] had a Ki at GCN2 kinase (setting [3]) of under 10 nM. The compound further yielded an IC50 in experiment [1] (compounds of Formula IV) of 500 to 5000 nM.
Compound `CN1CCN(c2cc(-c3cnc4ccc(C(F)F)nn34)ncn2)C[C@H]1C1(O)CC1` [II-459, (S)-1-(4-(6-(6-(Difluoromethyl)imidazo[1,2-b]pyridazin-3-yl)pyrimidin-4-yl)-1-methylpiperazin-2-yl)cyclopropan-1-ol] registered a Ki at GCN2 kinase (setting [2]) of over 1000 nM. The IC50 in experiment [1] (compounds of Formula II) was over 5000 nM.
`CC1CN(c2ccnc(-c3cnc4cnc(C(F)(F)F)cn34)n2)CC(c2cn[nH]c2)O1` (single isomer, unassigned) [IV-13, 2-Methyl-6-(1H-pyrazol-4-yl)-4-(2-(6-(trifluoromethyl)imidazo[1,2-a]pyrazin-3-yl)pyrimidin-4-yl)morpholine]: the Ki at GCN2 kinase (setting [3]) fell in the range of 10 to 100 nM. Moreover, in experiment [1] (compounds of Formula IV), the IC50 was under 500 nM.
At GCN2 kinase (setting [3]), `N#Cc1n[nH]cc1C1=CCCN(c2ccnc(-c3cnc4cnc(C(F)(F)F)cn34)n2)C1` [IV-548, 4-(1-(2-(6-(Trifluoromethyl)imidazo[1,2-a]pyrazin-3-yl)pyrimidin-4-yl)-1,2,5,6-tetrahydropyridin-3-yl)-1H-pyrazole-3-carbonitrile] gave a Ki of under 10 nM. For the same compound, the IC50 in experiment [1] (compounds of Formula IV) is 500 to 5000 nM.
`CC1CN(c2cc(-c3cnc4ccc(C(F)F)nn34)ccn2)CC(CNS(C)(=O)=O)C1(F)F` (stereo not shown) [II-78, N-((1-(4-(6-(Difluoromethyl)imidazo[1,2-b]pyridazin-3-yl)pyridin-2-yl)-4,4-difluoro-5-methylpiperidin-3-yl)methyl)methanesulfonamide] returned a Ki on GCN2 kinase (setting [2]) of under 10 nM. Besides, the concentration for half-maximal inhibition (IC50) in experiment [1] (compounds of Formula II) is under 500 nM.
Take `Cc1cc(N2CC(C)NC(c3cn[nH]c3)C2C)nc(-c2cnc3cnc(C(F)(F)F)cn23)n1` (stereo not shown) [IV-627, 3-(4-(2,5-Dimethyl-3-(1H-pyrazol-4-yl)piperazin-1-yl)-6-methylpyrimidin-2-yl)-6-(trifluoromethyl)imidazo[1,2-a]pyrazine]: the Ki at GCN2 kinase (setting [3]) was under 10 nM. This compound yielded a 50% inhibitory concentration (IC50) in experiment [1] (compounds of Formula IV) of 500 to 5000 nM.
`CC(=O)N1CCN(c2cc(-c3cnc4ccc(N5CCC(N)C5)nn34)ccn2)CC1` (stereo not shown) [II-736, 1-(4-(4-(6-(3-aminopyrrolidin-1-yl)imidazo[1,2-b]pyridazin-3-yl)pyridin-2-yl)piperazin-1-yl)ethan-1-one]: the Ki on GCN2 kinase (setting [2]) is over 1000 nM. This compound also came in with an IC50 in experiment [1] (compounds of Formula II) of over 5000 nM.
